Measured values reported in ChEMBL document CHEMBL2073934, “Functional characterization of the mouse organic-anion-transporting polypeptide 2” (Biochim Biophys Acta, 2002).
Where a SMILES comes first, the peptide text is derived from it. [ ]: non-standard residue; d: D form.

How the values were obtained:
[1] = target: T1, Solute carrier organic anion transporter family member 1A4 (Mus musculus, UniProt Q9EP96); assay: (§1) TP_TRANSPORTER: uptake in Xenopus laevis oocytes; assay type: functional, cell-based; conditions: oocyte
T1 sequence (Q9EP96 whole entry): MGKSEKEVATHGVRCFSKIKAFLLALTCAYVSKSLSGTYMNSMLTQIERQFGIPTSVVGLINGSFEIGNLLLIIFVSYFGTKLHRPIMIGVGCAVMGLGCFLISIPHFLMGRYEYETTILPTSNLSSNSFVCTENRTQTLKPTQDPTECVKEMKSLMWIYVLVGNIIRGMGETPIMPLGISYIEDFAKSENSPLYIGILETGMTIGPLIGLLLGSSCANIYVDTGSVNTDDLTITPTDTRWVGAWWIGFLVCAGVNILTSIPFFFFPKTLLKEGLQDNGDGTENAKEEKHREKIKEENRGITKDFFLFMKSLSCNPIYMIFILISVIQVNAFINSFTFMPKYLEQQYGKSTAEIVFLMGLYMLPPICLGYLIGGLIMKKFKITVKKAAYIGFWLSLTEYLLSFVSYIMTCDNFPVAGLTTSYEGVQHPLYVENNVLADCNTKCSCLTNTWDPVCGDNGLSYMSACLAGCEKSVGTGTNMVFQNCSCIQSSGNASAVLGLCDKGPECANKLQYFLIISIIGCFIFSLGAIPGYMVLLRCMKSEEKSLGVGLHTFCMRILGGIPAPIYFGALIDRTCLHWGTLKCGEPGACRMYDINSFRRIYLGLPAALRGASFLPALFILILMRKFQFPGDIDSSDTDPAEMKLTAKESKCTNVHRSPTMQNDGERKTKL

[2] = substrate: C[C@H]1O[C@@H](O[C@H]2[C@@H](O)C[C@H](O[C@H]3[C@@H](O)C[C@H](O[C@H]4CC[C@@]5(C)[C@H](CC[C@@H]6[C@@H]5C[C@@H](O)[C@]5(C)[C@@H](C7=CC(=O)OC7)CC[C@]65O)C4)O[C@@H]3C)O[C@@H]2C)C[C@H](O)[C@@H]1O; assay: as §1; assay type: functional, cell-based, Oocyte

C[C@@H]1O[C@@H](O[C@H]2C[C@@H](O)[C@]3(CO)[C@H]4[C@H](O)C[C@]5(C)[C@@H](C6=CC(=O)OC6)CC[C@]5(O)[C@@H]4CC[C@]3(O)C2)[C@H](O)[C@H](O)[C@H]1O [OUABAIN]
Activity [1]: substrate [+]

CC(C)C[C@@H]1NC(=O)[C@@H](C(C)C)NC(=O)[C@@H]2CCCN2C(=O)[C@@H](CC(=O)O)NC(=O)[C@@H](Cc2c[nH]c3ccccc23)NC1=O [BQ-123] (cyclo(L[dW][dD]P[dV]))
Activity [1]: substrate [+]

C[C@]12CC[C@@H]3c4ccc(OS(=O)(=O)O)cc4CC[C@H]3[C@@H]1CCC2=O [ESTRONE SULFURIC ACID]
Activity [1]: substrate [+]

C[C@]12CC[C@H](OS(=O)(=O)O)CC1=CC[C@@H]1[C@@H]2CC[C@]2(C)C(=O)CC[C@@H]12 [PRASTERONE SULFURIC ACID]
Activity [1]: substrate [+]

O=C1OC(c2ccc(O)c(S(=O)(=O)[O-])c2)(c2ccc(O)c(S(=O)(=O)[O-])c2)c2c(Br)c(Br)c(Br)c(Br)c21.[Na+].[Na+] [SULFOBROMOPHTHALEIN SODIUM]
Activity [1]: substrate [+]

B1: Solute carrier organic anion transporter family member 1A4 (Mus musculus) (protein)
chain: T1 sequence (Q9EP96 whole entry)
Km [2]: 5.7 µM
